The values that follow come from patent publication US11241406B2, “Compositions and methods for acutley raising nitric oxide levels” (Nature's Sunshine Products, Inc., priority 2015, dated 2022).

Data set [1] addresses T1, Myeloperoxidase (MPO) (Homo sapiens, UniProt P05164).
T1 sequence (P05164 49-745): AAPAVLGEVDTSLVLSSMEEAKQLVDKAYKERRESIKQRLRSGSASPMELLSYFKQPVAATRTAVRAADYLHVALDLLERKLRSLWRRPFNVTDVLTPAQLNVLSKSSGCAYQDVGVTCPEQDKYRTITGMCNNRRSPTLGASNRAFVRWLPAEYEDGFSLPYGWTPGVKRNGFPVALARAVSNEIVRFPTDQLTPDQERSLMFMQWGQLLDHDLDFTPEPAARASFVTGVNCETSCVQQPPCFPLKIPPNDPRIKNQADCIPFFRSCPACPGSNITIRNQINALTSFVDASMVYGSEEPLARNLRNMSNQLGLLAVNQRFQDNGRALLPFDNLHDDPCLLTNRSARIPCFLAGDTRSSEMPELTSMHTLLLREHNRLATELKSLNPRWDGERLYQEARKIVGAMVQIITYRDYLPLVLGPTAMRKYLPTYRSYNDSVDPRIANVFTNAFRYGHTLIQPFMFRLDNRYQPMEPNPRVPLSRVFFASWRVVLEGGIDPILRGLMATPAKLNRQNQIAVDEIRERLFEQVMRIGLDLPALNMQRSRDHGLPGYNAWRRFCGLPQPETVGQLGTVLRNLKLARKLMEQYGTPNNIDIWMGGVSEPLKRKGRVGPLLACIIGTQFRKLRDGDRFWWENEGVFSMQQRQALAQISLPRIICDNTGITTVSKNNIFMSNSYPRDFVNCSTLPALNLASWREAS
As to the kind of experiment: Myeloperoxidase Inhibitor Screening Assay (chlorination, hypochlorous acid production). The format is biochemical. The settings on record: MPO inhibition; parenthetic values are 95% confidence interval; read-out: Observed IC50 (converted). The procedure:
Formulations 1 and 2, as described in Table 2 above, were tested for their synergistic activity. Additional samples of F1 and F2 were prepared at an initial concentration of 100 mg/mL in an acetone:water (1:1) solution, sonicated in an ice bath for 60 min with vortexing every 10 min, and centrifuged at 3000 rpm at ambient temperature for 5 min. The supernatant liquid was transferred to fresh tubes and centrifuged again at 13,300 rpm at ambient temperature for 10 min. This final supernatant fraction was transferred to fresh tubes and stored at −80° C. until assayed.
The acetone used in this example was obtained through Fisher Chemical Co (Pittsburgh, Pa.) and was the highest purity available. […]
The chlorination assay utilizes the non-fluorescent 2-[6-(4-aminophenoxy)-3-oxo-3H-xanthen-9-yl]-benzoic acid (APF), which is selectively cleaved by hypochlorite to yield the highly fluorescent compound fluorescein. Fluorescein fluorescence was analyzed with an excitation wavelength of 480-495 nm and an emission wavelength of 515-525 nm using a Cytation5 microplate fluorescence reader (Bio Tek Instruments, Winooski, Vt.).
The median inhibitory concentration (IC50) for the inhibition of MPO activity was calculated using CalcuSyn (BIOSOFT, Ferguson, Mo.). […]
Synergy of test components was then quantified using the combination index (CI) parameter. […]

Data set [2] relates to NO biomarker NO2 in saliva. The experiment in a line: Salivary NO biomarker (NO2) test strips after dosing of the formulations. It counts as in vivo, human. The settings on record: pharmacodynamic studies in this laboratory. The procedure:
Over three days, subjects, with normal plasma concentrations of ADMA, were instructed to consume the 10 g of either F1 or F2 with 500 mL of water subsequent to developing the first, pre-dose NO strip. At post-dosing times 30, 60 and 90 minutes, NO strips were again developed for all subjects. One subject was given a 2× dose (20 g) of both formulations over the experimental period. The salivary NO strips, which detect salivary NO2, were nitric Oxide Test Strips (Berkeley Test, Berkeley, Calif.). Color development of NO strips was quantitated using densitometry. Means and 95% confidence intervals were computed using Excel [Microsoft, Redman, Wash.].
The assay of nitrite in saliva and nitrate in Test Formulation 3 (F3) was conducted as described in Example 1. Color development of NO strips was quantitated as described in Example 1. Means and 95% confidence intervals were computed as described in Example 1.
During the morning period, subjects (n=5), with normal plasma concentrations of ADMA, were instructed to consume 5 mL of the F3 with 500 mL of water subsequent to developing the first, pre-dose NO strip. At post-dosing times 30, 60 and 90 minutes, NO strips were again developed for all subjects.

The conditions of data set [3]: cited from earlier work.

`N=C(N)NCCC[C@H](N)C(=O)O` [L-Arginine]: the IC50 in data set [1] was 46.4 µM.

For the compound `NC(=O)NCCC[C@H](N)C(=O)O` [L-Citrulline], the IC50 in data set [1] is 103 µM.

`O=[N+]([O-])O` [NO3]: the “NO3 content that does not produce a detectable increase in NO strip color development” value in data set [2] was “below 12.5 mg NO3/dose”. For the same compound, in data set [3] (dietary NO3), the bioavailability is recorded as 100%. In data set [3] (orally consumed NO3), the half-life in plasma entry is “about 5 hours” and the “time to peak plasma concentration” value is “about 1 hour”.

In general, IC50 refers to the point on the concentration scale where inhibition reaches its midpoint. What is called bioavailability is the share of a dose that reaches the circulation, judged against a reference dose that is usually intravenous.
